viability, T/C and IC50 data for 9 compounds are collected here from PubChem BioAssay AID2060617 (Molecular Pharmacology Branch, DTP, NCI, 2025).

The subject of the test is 485368-065-R4-J2-PDC spheroids with HUVEC/MSC, viability. As to the kind of experiment: Anticancer human tumor 485368-065-R4-J2-PDC patient-derived pancreatic carcinoma cell line growth inhibition [CLK]. The following applies: for viability, T/C: stronger effect = lower value; for IC50: curve of compound. An excerpt:
A high-throughput screen of multi-cell type tumor spheroids was designed to identify active combinations of […] and targeted small molecules. Complex spheroids include a stromal component modeled by human endothelial cells (HUVEC) and fibroblasts modeled by human mesenchymal stem cells (MSCs). The concentration ranges selected for each drug and investigational agent were based upon clinically achievable concentrations if the clinical Cmax of the agent was known.
Compounds. The drugs and investigational agents: cirtuvivint (SM08502; NSC835563), CC-671 (NSC850746), vemurafenib (NSC761431), tapotoclax (NSC804041), sotorasib (NSC818433), adagrasib (NSC831453), MRTX-1133 (NSC836407), BAY2416964 (NSC825713), copanlisib (NSC816437), inavolisib (NSC800729), abemaciclib (NSC768073), osimertinib (NSC779217), entinostat (NSC756642), eltanexor (KPT-8602, NSC794443), venetoclax (NSC766270), ceralasertib (NSC777638), bortezomib (NSC756655), olaparib (NSC753686), talazoparib (NSC767125), alisertib (NSC759677), peposertib (NSC802822), gemcitabine (NSC613327), 5-fluorouracil (NSC19893), SN-38 (NSC673596), oxaliplatin (NSC266046), paclitaxel (NSC125973), and doxorubicin (NSC123127), were obtained from the National Cancer Institute (NCI) Developmental Therapeutics Program Chemical Repository. The FDA-approved anticancer drug set is available from the Developmental Therapeutics Program at https://dtp.cancer.gov/organization/dscb/obtaining/available plates.htm. […] The stock solutions were prepared in dimethyl sulfoxide (DMSO, Sigma-Aldrich, St. Louis, MO, cat. D2650), except for the platinum complexes which were prepared in saline (Quality Biological, Gaithersburg, MD, cat. 114-055-101), at 800-fold the tested concentration and stored at -70 degrees C prior to their use. All drugs and investigational agents were tested over a range starting from a high concentration at or near the clinical Cmax and decreasing in half-log increments. If the clinical Cmax for an agent had not been determined, the highest concentration tested was 10 microM.
Cell Culture. All cells were maintained in an incubator at 37 degrees C and 5% CO2 with 95% humidity. The PDC lines were cultured according to standard operating procedures established by the NCI PDMR. Briefly, all PDCs were thawed and cultured in Matrigel-coated flasks prepared with a working solution of 1X Ham's F-12 nutrient mix, without supplementation (Invitrogen, Waltham, MA, cat. 11765054), 100 U/mL penicillin-streptomycin (Invitrogen, cat. 15140122), and 2.5% Matrigel (Corning Inc., Corning, NY, cat. 354248) for the first three passages. The 947758-054-R-J2-PDC line was cultured in 6B/Colon 1A media, which includes advanced DMEM/F-12 (Thermo Fisher Scientific, cat. 12634028), 10 mM HEPES (Thermo Fisher Scientific, cat. 15630080), 1X GlutaMAX supplement (Thermo Fisher Scientific, cat. 35050061), 0.1 mg/mL primocin (InvivoGen, cat. ant-pm-2), 10% defined fetal bovine serum, heat inactivated (HyClone Laboratories Inc., cat. SH30070.03HI), 1.25 mM N-Acetyl-L-cysteine (Sigma-Aldrich, cat. A9165), 10 mM nicotinamide (Sigma-Aldrich, cat. N0636), 1X B-27 supplement (Thermo Fisher Scientific, cat. 17504044), 1X N-2 supplement (Thermo Fisher Scientific, cat. 17502048), and 10 microM Y-27632 dihydrochloride (Tocris Bioscience, cat. 1254). The 876862-298-R-J1-PDC was cultured in 6E media, which includes all 6B/Colon 1A media components plus 50% L-WRN conditioned media (ATCC, cat. CRL-3276), 50 ng/mL recombinant human EGF recombinant protein (hEGF; Thermo Fisher Scientific, cat. PHG0311), 10 ng/mL recombinant human fibroblast growth factor 10 (hGFG-10; PeproTech, cat. 100-26), 1 ng/mL recombinant human fibroblast growth factor 2 (hFGF-2; PeproTech, cat. 100-18B), and 1 µM prostaglandin E2 (PGE2; Tocris, cat. 2296). The 227483-062-R1-J1-PDC line was cultured in Panc media, containing all 6E components except hFGF-2, with the addition of 500 nM SB-431542 (Selleckchem, cat. S1067) and 10 nM gastrin (Tocris, cat. 3006). […]

Structures are written as SMILES. Values joined by “and” are separate entries in the source; they are usually repeats but may differ in a detail not shown here. Identical values can stand only once.

By viability, T/C is commonly meant the result in the treated group divided by that in the control group, in per cent. Usually IC50 stands for the concentration that gives 50% inhibition.
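Further: spheroids exposed to compounds for seven days.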
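Wherever viability, T/C is given: 100% = DMSO vehicle control wells.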

On to `CC(=O)O[C@H]1C(=O)[C@@]2(C)[C@H]([C@H](OC(=O)c3ccccc3)[C@]3(O)C[C@H](OC(=O)[C@H](O)[C@@H](NC(=O)c4ccccc4)c4ccccc4)C(C)=C1C3(C)C)[C@]1(OC(C)=O)CO[C@@H]1C[C@@H]2O`, for which the viability, T/C reads like this: (compound 0.0316 µM) 58.2% and 59.8%; (compound 0.1 µM) 50.1% and 56.1%; (compound 0.316 µM) 49% and 52.2%; (compound 1 µM) 48.5% and 43.6%; (compound 3.16 µM) 49.9% and 52.5%; (compound 10 µM) 48.8% and 65.5%.
`CC1(C)CCC(CN2CCN(c3ccc(C(=O)NS(=O)(=O)c4ccc(NCC5CCOCC5)c([N+](=O)[O-])c4)c(Oc4cnc5[nH]ccc5c4)c3)CC2)=C(c2ccc(Cl)cc2)C1`: the IC50 was 7.56 µM and 7.07 µM. The viability, T/C (compound 0.0316 µM) is 94.5% and 89%. Further, the viability, T/C (compound 0.1 µM) was 101% and 106%. Further, under “compound 0.316 µM”, the viability, T/C was 98.6% and 95%. Moreover, where the note is “compound 1 µM”, the viability, T/C is 100% and 93.7%. The viability, T/C (compound 3.16 µM) was 120% and 119%. Also, the viability, T/C (compound 10 µM) is 33.1% and 28%.
As to `CC1COCCN1c1cc(C2(S(C)(=N)=O)CC2)nc(-c2ccnc3[nH]ccc23)n1` (configuration not stated), the IC50 was greater than 10 µM. Moreover, where the note is “compound 0.0316 µM”, the viability, T/C is 91.5% and 90.7%. Moreover, the viability, T/C (compound 0.1 µM) was 97.5% and 93.1%. In addition, under “compound 0.316 µM”, the viability, T/C is 94.5% and 104%. Under “compound 1 µM”, the viability, T/C was 108% and 91.3%. In addition, under “compound 3.16 µM”, the viability, T/C is 109% and 108%. Also, the viability, T/C (compound 10 µM) was 102% and 113%.
For `COc1ccc([C@@H](O)c2cc(-c3ncnc4cc(N5CCOCC5)ccc34)c(F)cc2Cl)nn1`, the IC50 was greater than 10 µM. Besides, under “compound 0.0316 µM”, the viability, T/C is 97% and 105%. Further, the viability, T/C (compound 0.1 µM) is 94.9% and 95.8%. Moreover, the viability, T/C (compound 0.316 µM) was 103% and 96.8%. For the same compound, the viability, T/C (compound 1 µM) is 105% and 114%. Further, the viability, T/C (compound 3.16 µM) is 104% and 102%. The viability, T/C (compound 10 µM) was 82.6% and 77.8%.
Regarding `COc1cccc2c1C(=O)c1c(O)c3c(c(O)c1C2=O)CC(O)(C(=O)CO)CC3OC1CC(N)C(O)C(C)O1` (configuration not stated), the IC50 was 0.574 µM and 0.566 µM. Besides, the viability, T/C (compound 0.0316 µM) was 98.8% and 100%. For the same compound, the viability, T/C (compound 0.1 µM) was 102% and 91.6%. For the setting “compound 0.316 µM”, the viability, T/C was 67.6% and 66.2%. Further, for the setting “compound 1 µM”, the viability, T/C is 35% and 37.2%. Besides, the viability, T/C (compound 3.16 µM) was 7.33% and 9.65%. For the same compound, under “compound 10 µM”, the viability, T/C was 19.4% and 24.4%.
For the compound `Nc1ccccc1NC(=O)c1ccc(CNC(=O)OCc2cccnc2)cc1`, the IC50 is 6.87 µM and 7.34 µM. Besides, the viability, T/C (compound 0.0316 µM) is 83.9% and 90.3%. Further, where the note is “compound 0.1 µM”, the viability, T/C was 105% and 96.6%. Further, the viability, T/C (compound 0.316 µM) was 94.3% and 91.9%. Also, the viability, T/C (compound 1 µM) is 92.6% and 90.3%. In addition, the viability, T/C (compound 3.16 µM) is 88.2% and 84.8%. Where the note is “compound 10 µM”, the viability, T/C is 31.5% and 37%.
For the compound `Nc1ccn(C2OC(CO)C(O)C2(F)F)c(=O)n1` (configuration not stated), the IC50 is < 0.0316 µM and 0.0477 µM. Also, under “compound 0.0316 µM”, the viability, T/C was 46.4% and 56.8%. Further, the viability, T/C (compound 0.1 µM) was 30.6% and 37.9%. Further, the viability, T/C (compound 0.316 µM) is 29.7% and 32.5%. The viability, T/C (compound 1 µM) is 31.6% and 32.8%. Also, the viability, T/C (compound 3.16 µM) is 31.5% and 31.4%. Further, the viability, T/C (compound 10 µM) is 26.7% and 30.9%.
On to `O=C(c1cc(Cc2n[nH]c(=O)c3ccccc23)ccc1F)N1CCN(C(=O)C2CC2)CC1`, for which the IC50 is greater than 10 µM. In addition, the viability, T/C (compound 0.0316 µM) is 100% and 107%. In addition, the viability, T/C (compound 0.1 µM) is 97.7% and 89.2%. For the setting “compound 0.316 µM”, the viability, T/C is 88.7% and 107%. Also, for the setting “compound 1 µM”, the viability, T/C is 98.2% and 104%. Also, the viability, T/C (compound 3.16 µM) is 98.8% and 108%. Besides, the viability, T/C (compound 10 µM) is 89.5% and 94.8%.
For `O=c1[nH]cc(F)c(=O)[nH]1`, the half-inhibitory concentration (IC50) was greater than 10 µM. In addition, for the setting “compound 0.0316 µM”, the viability, T/C is 95.5% and 88.4%. For the same compound, under “compound 0.1 µM”, the viability, T/C is 96.6% and 84.4%. In addition, under “compound 0.316 µM”, the viability, T/C is 95.6% and 87.4%. In addition, the viability, T/C (compound 1 µM) was 96.9% and 95.8%. Moreover, where the note is “compound 3.16 µM”, the viability, T/C is 96.6% and 96%. Further, the viability, T/C (compound 10 µM) is 88.5% and 82.3%.
